# Measured values from patent US11643428B2, “Therapeutic drug for neurodegenerative disease and application thereof” (SHANGHAI PHARMACEUTICALS HOLDING CO., LTD., priority 2018, dated 2023).
# Legend:
# Human neural stem cells = assay: Neural stem cell proliferation under Aβ by EdU incorporation; format: cell-based; details: Aβ 5 μM pre-treatment 30 minutes, PL201 30 μM, 72 hours
# Method: As the main pathogenic protein of AD, Aβ inhibits neural stem cell proliferation. In this example, the inventors detected the levels of human neural stem cell proliferation by EdU incorporation, and tested whether PL201 can alleviate the inhibition effect of Aβ on the proliferation of neural stem cells.
# Human neural stem cells (3 L) were cultured in DMEM/F12 (containing N2/B27 and 10 ng/ml bFGF), plated to 96 well plates and incubated for 24 hours, then Aβ (5 μM) was added to pre-treat the cells for 30 minutes, and then PL201 (30 μM) was added. After co-incubation for 72 hours, the proliferation level of neural stem cells was detected by EdU staining.
# AD mice = assay: Aβ plaques in brain, thioflavin S staining; format: in vivo, mouse; details: 10 mg/kg intragastrically, 90 days, vs control group
# Method: The inventors conducted PL201 administration experiments on AD mice (5-6 months aged AD mice were selected). Each mouse was intragastrically administrated 100 μl PL201, and the dosage was 10 mg/kg mouse body weight. Moreover, mice in the control group were administrated 100 μl water once daily for 90 days, and from Day 60 were intraperitoneally injected with 5-bromo-2′-deoxyuridine (BrdU) of 50 mg/kg mouse body weight once daily for 7 days. After 90 days of administration, the mice were perfused with PFA after anesthesia, and the whole brain was taken for further experiments.
# The inventors performed frozen sectioning coronally with a thickness of 30 μm on the whole brain sample of AD mice after administration in example 2, and the slices were stained with thioflavin S and DAPI. The stained brain slices were then photographed with Olympus FV100i or Leica SP-8.
# [1] = system: AMPK phosphorylation in human neural stem cells; assay: AMPK phosphorylation level by western blot; format: cell-based; details: Aβ 5 μM pre-treatment 30 minutes, PL201 30 PM, 72 hours
# Method: The changes of mitochondrial function are closely related to the regulation of metabolism signaling including AMPK, which is also widely considered to be closely related to the pathogenesis of AD. In this example, the inventors have explored whether PL201 has an effect on metabolism signaling by detecting the level of AMPK phosphorylation in human neural stem cells via western blot.
# Human neural stem cells (3 L) were cultured in DMEM/F12 (containing N2/B27 and 10 ng/ml bFGF), plated to 12 well plates and cultured for 24 hours, then Aβ (5 μM) was added to pre-treat the cells for 30 minutes, and then PL201 ([…]) was added. After co-incubation for 72 hours, the cells were washed with PBS and lysed with Laemmli's sample buffer, then SDS PAGE electrophoresis was performed to detect associated protein bands with rabbit anti-phospo-AMPK and total AMPK antibody.
# MPTP mice model [2] = assay: Striatal dopaminergic nerve fibers, TH western blot, MPTP model; format: in vivo, mouse; details: PL201+MPTP vs NS+MPTP group, Day 7 after MPTP modeling
# Method: (§1) The mice were randomly divided into 4 groups: a group in which the mice was administrated with normal saline (NS), a MPTP model group in which the mice was intragastrical administrated with normal saline (NS+MPTP), a group in which the mice was intragastrical administrated with 50 mg of compound PL201 (PL201), and a MPTP model group in which the mice was intragastrical administrated with compound PL201 (PL201+MPTP).
# (§2) 11 animals were set in the group in which the mice was administrated with normal saline (NS), 14 animals were set in the MPTP model group in which the mice was intragastrical administrated with normal saline (NS+MPTP), 4 animals were set in the group in which the mice was intragastrically administrated with 50 mg of compound PL201 (PL201), 15 animals were set in the MPTP model group in which the mice was intragastrically administrated with the compound PL201 (PL201+MPTP).
# The administration started on the day of animal grouping: mice in the NS and the NS+MPTP group were administrated with normal saline, and mice in the other two groups were administrated with compound PL201 once a day for 7 consecutive days. […]
# On Day 7 after MPTP modeling, animals in each group were anesthetized with 10% chloral hydrate. […] The fluorescence signal was detected by Odyssey near-infrared fluorescence scanner and made statistics.
# MPTP mice model [3] = assay: TH immunohistochemistry of substantia nigra and striatum, MPTP model; format: in vivo, mouse; details: PL201+MPTP vs NS+MPTP group, Day 7 after MPTP modeling
# Method: as §1, §2
# The administration started on the day of animal grouping: mice in the NS and the NS+MPTP group were intragastrically administrated with normal saline, and mice in the other two groups were administrated with compound PL201 once a day for 7 consecutive days. From Day 7, mice in the NS and the PL201 group were intraperitoneally injected with 5 ml/kg normal saline, while mice in the NS+MPTP and the PL201+MPTP group were intraperitoneally injected with 25 mg/kg of MPTP once a day for a total of 5 days. […]
smiles,measurement,setting,value
"COc1cc(/C=C/C(=O)OC2OC(C)C(O)C(O)C2O)ccc1O [PL201, (α-L-rhamnopyranosyl) ferulic acid ester]",proliferation level of neural stem cells (EdU staining),Human neural stem cells,significantly alleviate the inhibitory effect of Aβ
same,Aβ plaques in brain,AD mice,less Aβ plaques
same,AMPK phosphorylation level,[1],reduced the extent of this decline
same,level of striatal dopaminergic nerve fibers (TH western blot),MPTP mice model [2],significantly increased
same,"level of striatal dopaminergic nerve fibers (TH immunohistochemistry, mean optical density)",MPTP mice model [3],significantly increased
same,number of dopaminergic neurons in substantia nigra (TH positive cells),MPTP mice model [3],significantly increased
